We go through one compound from patent US20250120928A1 (University of Maryland, Baltimore, priority 2021, published 2025).

Usually IC50 stands for the concentration that gives 50% inhibition.

The structures appear in SMILES notation. Entries after “also recorded” stand apart in the source; their conditions may differ.

One test has as its target T1, HDAC6 (Homo sapiens, UniProt Q9UBN7).
T1 construct: purchased Reaction Biology Corporation
T1 sequence (Q9UBN7 1-1215): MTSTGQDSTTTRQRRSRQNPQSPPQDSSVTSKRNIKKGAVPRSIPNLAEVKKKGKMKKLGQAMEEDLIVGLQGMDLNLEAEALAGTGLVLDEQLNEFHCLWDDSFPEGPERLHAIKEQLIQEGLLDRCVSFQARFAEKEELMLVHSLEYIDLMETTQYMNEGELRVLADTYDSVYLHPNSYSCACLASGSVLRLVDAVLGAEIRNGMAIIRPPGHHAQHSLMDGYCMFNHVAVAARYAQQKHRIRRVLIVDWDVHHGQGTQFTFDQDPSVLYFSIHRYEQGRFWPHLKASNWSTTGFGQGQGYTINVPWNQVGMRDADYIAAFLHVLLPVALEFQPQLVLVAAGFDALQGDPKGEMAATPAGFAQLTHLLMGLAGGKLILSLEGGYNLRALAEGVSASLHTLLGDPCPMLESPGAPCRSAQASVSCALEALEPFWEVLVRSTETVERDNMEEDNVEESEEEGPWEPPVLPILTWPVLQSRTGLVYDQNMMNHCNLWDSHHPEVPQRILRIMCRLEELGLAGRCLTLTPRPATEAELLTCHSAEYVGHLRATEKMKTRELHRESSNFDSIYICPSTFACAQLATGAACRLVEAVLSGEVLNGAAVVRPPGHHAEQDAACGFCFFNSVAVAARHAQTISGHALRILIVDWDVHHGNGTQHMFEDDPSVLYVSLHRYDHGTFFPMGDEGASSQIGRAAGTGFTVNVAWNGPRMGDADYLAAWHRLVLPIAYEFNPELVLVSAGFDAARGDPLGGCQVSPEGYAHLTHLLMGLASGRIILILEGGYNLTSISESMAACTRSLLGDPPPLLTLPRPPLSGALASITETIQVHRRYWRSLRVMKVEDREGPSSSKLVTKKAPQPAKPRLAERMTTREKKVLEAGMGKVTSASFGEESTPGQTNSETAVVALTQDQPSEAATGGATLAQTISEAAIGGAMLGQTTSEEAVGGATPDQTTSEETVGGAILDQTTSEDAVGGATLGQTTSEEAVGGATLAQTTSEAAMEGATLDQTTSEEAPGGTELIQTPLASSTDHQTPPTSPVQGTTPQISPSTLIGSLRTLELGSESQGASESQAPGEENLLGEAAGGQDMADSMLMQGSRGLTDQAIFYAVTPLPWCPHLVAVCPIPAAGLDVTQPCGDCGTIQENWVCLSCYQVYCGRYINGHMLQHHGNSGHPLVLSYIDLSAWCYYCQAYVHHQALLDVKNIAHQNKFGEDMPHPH
The test is described as follows: Fluorescence-based HDAC activity assay with fluorogenic peptide substrate (Reaction Biology). It counts as biochemical. On the procedure:
Fluorescence-based activity assays using fluorogenic peptides as substrates for HDAC1, 2, 3, 6, and 8 were performed by Reaction Biology Corporation (reactionbiology.com). […] The substrate for HDACs 1, 2, 3, and 6 was a fluorogenic peptide from p53 residues 379-382 (RHKK(Ac)AMC) (SEQ ID NO: 1). The substrate for HDAC8 was a fluorogenic peptide from p53 residues 379-382 (RHK(Ac)K(Ac)AMC) (SEQ ID NO: 2). SAHA-OH IC50 values were calculated using GraphPad Prism 4 program based on a sigmoidal dose-response equation. The blank (DMSO) value was entered as 1.00×10^−12 of concentration for curve fitting.

For test [1], the system named is LPS-stimulated bone marrow macrophages (BMMØ). Kind of test: BMMØ cytokine secretion following LPS stimulation (ELISA, Luminex). It counts as cell-based, C57BL/6J mice. On the procedure: Three hours later, cells were stimulated with 100 ng/mL LPS. After 48 hours, cell culture supernatants were collected and analyzed by enzyme-linked immunosorbent assays (ELISA) (BioLegend, San Diego, CA) to measure murine IL-6 and TNFα. MAGPIX Luminex bead-based multiplex ELISA (Thermo Fisher Scientific, Waltham, MA) measured for 7 various cytokines and chemokines, and data were analyzed using the Luminex xPONENT software (Millipore) as per manufacturer's instructions. The 7-plex panel included murine IFNβ, IL-10, IL-6, IL-1β, MCP-1 (CCL2), TNFα, and GROα (CXCL1).
After 48 hours, cell culture supernatants were collected and analyzed by enzyme-linked immunosorbent assays (ELISA) (BioLegend, San Diego, CA) to measure murine IL-6 and TNFα. MAGPIX Luminex bead-based multiplex ELISA (Thermo Fisher Scientific, Waltham, MA) measured for 7 various cytokines and chemokines, and data were analyzed using the Luminex xPONENT software (Milli-pore) as per manufacturer's instructions. The 7-plex panel included murine IFNβ, IL-10, TL-6, IL-1β, MCP-1 (CCL2), TNFα, and GROα (CXCL1).
(In general: ELISA stands for enzyme-linked immunosorbent assay.)

For test [2], the system named is LPS-induced endotoxemia mouse model. The test is described as follows: Plasma cytokine analysis in the LPS-induced endotoxemia mouse model. It counts as in vivo, male C57BL/6J mice. The note with it: 50 mg/kg i.p. 3 hours before 20 mg/kg LPS i.p.; blood 3 hours post-LPS. On the procedure:
Terminal cardiac blood draws from the left ventricle occurred 3 hours post LPS injections using a 25 g needle and 1 mL syringe into an EDTA coated lavender blood collection tube (BD Medical, Franklin Lakes, NJ). Blood samples were centrifuged at 1000×g for 10 minutes within 30 minutes of collection. Plasma was extracted and diluted 10,000-fold for ELISA IL-6 measurement and diluted 10-fold for TNFα measurements.
Terminal cardiac blood draws from the left ventricle occurred 3 hours post LPS injections using a 25 g needle and 1 mL syringe into an EDTA coated lavender blood collection tubes (BD Medical, Franklin Lakes, NJ). Blood samples were centrifuged at 1000×g for 10 minutes within 30 minutes of collection. Plasma was extracted and diluted 10,000-fold for ELISA IL-6 measurement and diluted 10-fold for TNFα measurements. MAGPIX Luminex bead-based multiplex ELISA (Thermo Fisher Scientific, Waltham, MA) of mouse plasma (diluted 100-fold) measured for 26 various cytokines and chemokines and data was analyzed using the Luminex xPONENT software (Millipore) as per manufacturer's instructions. The 26-plex panel include murine IL-1β, IL-2, IL-4, IL-5, IL-6, IL-9, IL-10, IL-12p70, IL-13, IL-17A (CTLA-8), IL-18, IL-22, IL-23, IL-27, GM-CSF, IFNγ, TNFα, MCP-1 (CCL2), MIP-1α (CCL3), MIP-10 (CCL4), RANTES (CCL5), MCP-3 (CCL7), Eotaxin (CCL11), GROα (CXCL1), MIP-2a (CXCL2), and IP-10 (CXCL10).

[3] abbreviates: 0-30 μM for 3 hours, then LPS 100 ng/mL 48 hours, ELISA.
Setting [4] is: 10 μM, 3 hours before 48-hour LPS.
The mark [5] stands for this setting: 10 μM, 3 hours before 48-hour LPS, Luminex, relative to LPS control.

In the case of `O=C(CCCCCCC(=O)Nc1ccc(CO)cc1)NO` [SAHA-OH, N^1-hydroxy-N^8-(4-(hydroxymethyl)phenyl)octanediamide], the “less selective HDAC6 inhibition compared to Tubastatin A” value on HDAC6 (23 nM compared to […] nM) turned out to be 1.5 fold. Moreover, the IC50 on HDAC6 (read-out: IC50 against HDAC6) stood at 23 nM. Moreover, in test [1] (setting [3]), the IL-6 cytokine secretion result is listed as “concentration-dependent reduction” and the TNFα cytokine secretion result is listed as “concentration-dependent reduction”. In test [1] (setting [4]), the IL-6 secretion result is “less effective than SAHA; also recorded: only moderately suppressed” and the MCP-1 cytokine secretions entry is listed as “non-significantly affected”. In test [1] (setting [5]), the IFNβ cytokine levels result is “similarly suppressed cytokine levels compared to SAHA”, the IL-1β cytokine levels entry is on record as “did not affect IL-1β (FIG. 8B) cytokine levels as effectively as 10 μM SAHA” and the TNFα cytokine levels result is on record as “similarly suppressed cytokine levels compared to SAHA”. Further, the “GROα (CXCL1) secretion” value in test [1] (10 μM, Luminex, compared to LPS or SAHA-treated BMMØs) is “significant upregulation”. For the same compound, in test [2], the “reduction of plasma IL-6” value is “about 50%” and the “reduction of plasma TNFα” value was “about 50%”.
